# Experimental data reported in ChEMBL document CHEMBL1130926, “Novel H3 receptor antagonists. Sulfonamide homologs of histamine” (Bioorg Med Chem Lett, 1998).
# Calls of active or inactive are those of the source. The rule behind the calls is not given here.
# What was measured:
# [1] = target: T1, Histamine H3 receptor (Cavia porcellus, UniProt Q9JI35); test: H3 -antagonist potency determined in electrically stimulated guinea-pig ileum; assay type: functional, tissue-based; settings: read-out: pA2 (converted)
# T1 sequence (Q9JI35 whole entry): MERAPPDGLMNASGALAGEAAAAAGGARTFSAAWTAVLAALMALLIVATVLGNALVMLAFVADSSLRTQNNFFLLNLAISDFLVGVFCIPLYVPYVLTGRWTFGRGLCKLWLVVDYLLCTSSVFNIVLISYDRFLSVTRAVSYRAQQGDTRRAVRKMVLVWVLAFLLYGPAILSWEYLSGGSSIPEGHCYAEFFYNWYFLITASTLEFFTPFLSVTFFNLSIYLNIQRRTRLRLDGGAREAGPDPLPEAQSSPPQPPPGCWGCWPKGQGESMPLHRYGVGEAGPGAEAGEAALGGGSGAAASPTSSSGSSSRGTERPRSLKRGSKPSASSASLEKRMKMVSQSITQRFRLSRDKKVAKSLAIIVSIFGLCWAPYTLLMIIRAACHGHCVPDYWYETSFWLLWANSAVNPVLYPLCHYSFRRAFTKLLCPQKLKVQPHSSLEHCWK
# [2] = target: T1, Histamine H3 receptor; test: Inhibition of [3H]Nalpha-methylhistamine binding to H3 receptor in guinea-pig brain membranes; assay type: cell membranes, Membrane
# [3] = target: Histamine H3 receptor (Cavia porcellus) (UniProt Q9JI35); test: Evaluated in vivo for its H3 receptor antagonist activity in the CNS hypertension model at 3 mg/kg dose; assay type: functional, organism-based; set-up: dose 3 mg/kg
# Sequence of Histamine H3 receptor (Cavia porcellus) (Q9JI35 whole entry): as above
# [4] = target: Histamine H3 receptor (Cavia porcellus) (UniProt Q9JI35); test: Evaluated in vivo for its H3 receptor antagonist activity in the CNS hypertension model; assay type: functional, organism-based
# [5] = target: Histamine H1 receptor (Cavia porcellus, UniProt P31389); test: Evaluated for the percent binding affinity against H1 receptor by an H1 histamine-mediated bronchospasm; set-up: concentration or dose not given beside the values
# Sequence of Histamine H1 receptor (P31389 whole entry): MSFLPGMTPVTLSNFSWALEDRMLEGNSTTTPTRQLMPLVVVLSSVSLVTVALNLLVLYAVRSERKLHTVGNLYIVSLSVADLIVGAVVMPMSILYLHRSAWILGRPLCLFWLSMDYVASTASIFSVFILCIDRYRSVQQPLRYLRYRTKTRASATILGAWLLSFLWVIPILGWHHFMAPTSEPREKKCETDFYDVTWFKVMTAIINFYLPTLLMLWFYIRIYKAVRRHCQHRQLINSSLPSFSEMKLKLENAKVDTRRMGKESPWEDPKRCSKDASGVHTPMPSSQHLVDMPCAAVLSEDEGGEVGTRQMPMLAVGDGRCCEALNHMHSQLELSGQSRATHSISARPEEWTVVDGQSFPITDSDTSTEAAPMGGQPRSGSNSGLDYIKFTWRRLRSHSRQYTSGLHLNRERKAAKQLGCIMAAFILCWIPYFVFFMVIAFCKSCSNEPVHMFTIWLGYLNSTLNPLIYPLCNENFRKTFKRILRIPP
# [6] = tested on: Cavia porcellus; test: Compound was evaluated in vivo for its H3 receptor antagonist activity in the CNS hypertension model; NA: Not active; assay type: functional, organism-based
Kb [1],Ki [2],ED50 [4],inhibition [5],Compound,inhibition [3],ED50 [6]
7.94 nM,2.5 nM,,,O=S(=O)(c1ccc(Cl)cc1)N(CCCCc1c[nH]cn1)CCCCn1ccnc1,,
,,,,Cc1ccc(S(=O)(=O)NCCCCc2c[nH]cn2)cc1,16%,
15.8 nM,16.5 nM,3 mg/kg,32%,CC(C)(C)c1ccc(S(=O)(=O)NCCCCc2c[nH]cn2)cc1,,
10 nM,24.3 nM,,1%,O=S(=O)(NCCCCCc1c[nH]cn1)c1ccc(OC(F)(F)F)cc1,,
,,,24%,O=[N+]([O-])c1ccc(S(=O)(=O)NCCCCc2c[nH]cn2)cc1,,inactive
,550 nM,,,O=S(=O)(NCCCc1cnc[nH]1)c1cccs1,,
,45.5 nM,,30%,CC(C)(C)c1ccc(S(=O)(=O)NCCCc2c[nH]cn2)cc1,,
63.1 nM,22 nM,,,CC(C)S(=O)(=O)NCCCCc1cnc[nH]1,,
10 nM,7 nM,,,O=S(=O)(NCCCCc1c[nH]cn1)c1ccc(OC(F)(F)F)cc1,,inactive
10 nM,5 nM,,14%,CC(C)(C)c1ccc(S(=O)(=O)NCCCCCc2c[nH]cn2)cc1,40%,
,380 nM,,21%,O=S(=O)(NCCCc1c[nH]cn1)c1ccc(Cl)cc1,,
15.8 nM,24 nM,3 mg/kg,45%,O=S(=O)(c1ccc(Cl)cc1)N(CCCCc1c[nH]cn1)Cc1ccc(Cl)cc1,,
7.94 nM,5.5 nM,2.7 mg/kg,25%,O=[N+]([O-])c1ccc(S(=O)(=O)NCCCCCc2c[nH]cn2)cc1,,
,42 nM,,,O=[N+]([O-])c1ccccc1CS(=O)(=O)NCCCCc1cnc[nH]1,,
3.98 nM,10 nM,3 mg/kg,1%,O=S(=O)(NCCCCc1c[nH]cn1)c1ccc(C(F)(F)F)cc1,,
20 nM,16.5 nM,,,O=[N+]([O-])c1ccc(S(=O)(=O)NCCCCc2cnc[nH]2)cc1,,
,93 nM,,36%,O=[N+]([O-])c1ccc(S(=O)(=O)NCCCc2c[nH]cn2)cc1,,

Compound,Kb [1],Ki [2],ED50 [4],inhibition [5],inhibition [3],ED50 [6]
O=S(=O)(NCCCCCc1c[nH]cn1)c1ccc(Cl)cc1,,,3 mg/kg,37%,,
Nc1ccc(S(=O)(=O)NCCCCc2c[nH]cn2)cc1,,99 nM,,,,
O=S(=O)(NCCCCc1cnc[nH]1)c1ccc(Cl)cc1,12.6 nM,9 nM,,,,
O=S(=O)(NCCCCc1c[nH]cn1)c1ccc(F)cc1,158 nM,20.5 nM,,19%,,
O=S(=O)(NCCCCc1c[nH]cn1)c1cccc(Cl)c1,50.1 nM,8.5 nM,,,8%,
CN(CCCCc1c[nH]cn1)S(=O)(=O)c1ccc(Cl)cc1,5.01 nM,4 nM,,32%,43%,
O=S(=O)(NCCCCc1cnc[nH]1)c1cccs1,,45 nM,,,,
Cc1ccc(S(=O)(=O)NCCCCc2cnc[nH]2)cc1,25.1 nM,17 nM,,,,
O=S(=O)(NCCCCc1c[nH]cn1)c1ccccc1,,,,5%,,inactive
O=S(=O)(NCCCCc1cnc[nH]1)c1ccccc1,31.6 nM,10.5 nM,,,,
O=S(=O)(Cc1ccccc1)NCCCCc1c[nH]cn1,31.6 nM,6 nM,,3%,17%,
COc1ccc(S(=O)(=O)NCCCCc2cnc[nH]2)cc1,,51 nM,,,,
O=S(=O)(NCCCCCc1c[nH]cn1)c1ccccc1,63.1 nM,24.5 nM,,19%,,
Cn1cc[n+](S(=O)(=O)NCCCCc2c[nH]cn2)c1,,43 nM,,,,
O=S(=O)(NCCCCCc1cnc[nH]1)c1ccc(Cl)cc1,100 nM,11.5 nM,,,,
O=S(=O)(NCCCCc1c[nH]cn1)c1ccc(Cl)cc1,,,2.2 mg/kg,48%,,
